In article PMC10313671, “Accelerating the prediction and discovery of peptide hydrogels with human-in-the-loop” (Nature Communications, 2023):
Where a SMILES comes first, the peptide text is derived from it.

Assays:
[1] = Peptide hydrogel formation, vial-inverting method; assay type: physicochemical; design: key to EXP / GELATION: 0: no hydrogel; 1: hydrogel; settings: for State: ultrasonication, standing 48 h; for State / GELATION: vial-inverting method; for Concentration: concentration at which the state was recorded: lowest of 30, 60, 90, 120 mM that gave a gel, 120 mM for non-gelating peptides; for GELATION: 1 = hydrogel, 0 = no hydrogel
Method: After validating the efficiency of APHC in predicting tetrapeptide hydrogels, we detailed the phase state of 165 synthesized tetrapeptides and the observed assembly behavior in an aqueous solution.
This work defines hydrogel formation as a self-supporting, non-flowing mixture of water and hydrogelator by the vial-inverting method. All purified tetrapeptides were dissolved in ultrapure water (to form a 30 mM solution initially), followed by the stepwise addition of 1 N NaOH solution to adjust the overall aqueous pH to 6.5–8.5. Meanwhile, a short-term ultrasonication treatment was applied after each pH adjustment to facilitate peptide solubilization and speed up peptide self-assembly. […] The mixture was allowed to stand in for another 48 h for complete hydrogelation. Upon the absence of gelation phenomenon during the aforementioned loops, we increased the peptide concentration (60 mM, 90 mM, and 120 mM were selected) and re-started such gelation operation loop to explore their gelation feasibility.

[2] = Transmission electron microscope (negative staining) of peptide assemblies; settings: TEM, negative staining with uranyl acetate, 120 kV
Method: We used the negative staining technique to observe the morphologies formed by peptides. A micropipette was used to load 10 μL of sample solution to a carbon-coated copper grid, and we used a piece of filter paper to remove the excess solution. After rinsing the grid with the deionized water, we used uranyl acetate to stain the sample for 1 minute and then rinsed the grid with deionized water again.

[3] = 30 mM peptide in ultrapure water, pH adjusted to 6.5-8.5 with 1 N NaOH, concentration raised 30/60/90/120 mM until gelation
[4] = 120 mM peptide (highest tested) in ultrapure water, pH 6.5-8.5 (1 N NaOH), precipitate, sol, suspension = no gel
[5] = 60 mM peptide in ultrapure water, pH 6.5-8.5 (1 N NaOH), no gel at 30 mM

SMILES | Concentration [1] | State [1, 4] | GELATION ([1]; peptide concentration 120 mM) | Morphology ([2]; line of the table gives 120 mM) | further results
CSCC[C@H](NC(=O)[C@H](CCSC)NC(=O)[C@H](Cc1ccccc1)NC(=O)[C@@H](N)Cc1c[nH]c2ccccc12)C(=O)O [WFMM] (H-WFMM-OH) | 30000 µM |  |  |  | State [1, 3]: gel; GELATION ([1]; peptide concentration 30 mM): 1; Morphology ([2]; line of the table gives 30 mM): fibre
CSCC[C@H](NC(=O)[C@@H](N)Cc1ccccc1)C(=O)N[C@@H](Cc1ccc(O)cc1)C(=O)N[C@@H](CO)C(=O)O [FMYS] (H-FMYS-OH) | 120000 µM | sol | 0 | aggregates | 
CC[C@H](C)[C@H](NC(=O)[C@H](C)NC(=O)[C@@H](NC(=O)[C@@H](N)CC(C)C)C(C)C)C(=O)O [LVAI] (H-LVAI-OH) | 60000 µM |  |  |  | State [1, 5]: gel; GELATION ([1]; peptide concentration 60 mM): 1; Morphology ([2]; line of the table gives 60 mM): fibre
CC(C)C[C@H](NC(=O)[C@H](C)NC(=O)[C@@H](N)Cc1c[nH]c2ccccc12)C(=O)N[C@@H](Cc1c[nH]c2ccccc12)C(=O)O [WALW] (H-WALW-OH) | 30000 µM |  | 1 |  | State [1, 3]: gel; Morphology ([2]; line of the table gives 30 mM): fibre
CC(C)C[C@H](NC(=O)[C@@H](N)CC(C)C)C(=O)N[C@@H](CCCNC(=N)N)C(=O)N[C@@H](CCC(N)=O)C(=O)O [LLRQ] (H-LLRQ-OH) | 120000 µM | suspension | 0 | aggregates | 
O=C(O)[C@H](CS)NC(=O)[C@H](Cc1c[nH]c2ccccc12)NC(=O)[C@H](Cc1c[nH]c2ccccc12)NC(=O)[C@@H]1CCCN1 [PWWC] (H-PWWC-OH) | 120000 µM | suspension | 0 | aggregates | 
CC(C)[C@H](NC(=O)[C@@H]1CCCN1)C(=O)N[C@@H](Cc1ccccc1)C(=O)N[C@@H](Cc1ccc(O)cc1)C(=O)O [PVFY] (H-PVFY-OH) | 30000 µM |  |  |  | State [1, 3]: gel; GELATION ([1]; peptide concentration 30 mM): 1; Morphology ([2]; line of the table gives 30 mM): needle
NC(=O)C[C@H](N)C(=O)N[C@@H](Cc1c[nH]c2ccccc12)C(=O)N[C@@H](Cc1c[nH]c2ccccc12)C(=O)N[C@@H](Cc1ccccc1)C(=O)O [NWWF] (H-NWWF-OH) | 30000 µM |  |  |  | State [1, 3]: gel; GELATION ([1]; peptide concentration 30 mM): 1; Morphology ([2]; line of the table gives 30 mM): sphere
CSCC[C@H](NC(=O)[C@H](CCSC)NC(=O)[C@H](Cc1ccccc1)NC(=O)[C@@H](N)C(C)C)C(=O)O [VFMM] (H-VFMM-OH) | 120000 µM | gel | 1 | fibre | 
C[C@H](NC(=O)[C@@H](N)CS)C(=O)N[C@@H](Cc1ccc(O)cc1)C(=O)N[C@@H](Cc1c[nH]c2ccccc12)C(=O)O [CAYW] (H-CAYW-OH) | 120000 µM | precipitate | 0 | aggregates | 
CC(C)C[C@H](NC(=O)[C@H](CC(C)C)NC(=O)[C@@H](N)Cc1c[nH]cn1)C(=O)N[C@@H](Cc1ccccc1)C(=O)O [HLLF] (H-HLLF-OH) | 90000 µM |  |  |  | State ([1]; 90 mM peptide in ultrapure water, pH 6.5-8.5 (1 N NaOH), no gel at lower concentrations): gel; GELATION ([1]; peptide concentration 90 mM): 1; Morphology ([2]; line of the table gives 90 mM): sheet
N[C@@H](CS)C(=O)N[C@@H](Cc1c[nH]c2ccccc12)C(=O)N[C@@H](Cc1ccccc1)C(=O)N[C@@H](CO)C(=O)O [CWFS] (H-CWFS-OH) | 30000 µM |  |  |  | State [1, 3]: gel; GELATION ([1]; peptide concentration 30 mM): 1; Morphology ([2]; line of the table gives 30 mM): fibre
N[C@@H](Cc1c[nH]cn1)C(=O)N[C@@H](Cc1c[nH]cn1)C(=O)N[C@@H](Cc1c[nH]cn1)C(=O)N[C@@H](Cc1c[nH]cn1)C(=O)O [HHHH] (H-HHHH-OH) | 120000 µM | sol | 0 | aggregates | 
CC(C)C[C@H](NC(=O)[C@@H](N)CO)C(=O)N[C@H](C(=O)N[C@H](C(=O)O)C(C)C)C(C)C [SLVV] (H-SLVV-OH) | 60000 µM |  |  |  | State [1, 5]: gel; GELATION ([1]; peptide concentration 60 mM): 1; Morphology ([2]; line of the table gives 60 mM): fibre
CSCC[C@H](NC(=O)[C@@H](N)Cc1ccccc1)C(=O)N[C@@H](CC(C)C)C(=O)N[C@@H](Cc1ccccc1)C(=O)O [FMLF] (H-FMLF-OH) | 30000 µM |  |  |  | State [1, 3]: gel; GELATION ([1]; peptide concentration 30 mM): 1; Morphology ([2]; line of the table gives 30 mM): sheet
CC[C@H](C)[C@H](N)C(=O)N[C@H](C(=O)N[C@H](C(=O)N[C@@H](Cc1ccc(O)cc1)C(=O)O)[C@@H](C)CC)C(C)C [IVIY] (H-IVIY-OH) | 60000 µM |  |  |  | State [1, 5]: gel; GELATION ([1]; peptide concentration 60 mM): 1; Morphology ([2]; line of the table gives 60 mM): aggregates
CC(C)C[C@H](NC(=O)[C@@H](NC(=O)CN)C(C)C)C(=O)N[C@@H](Cc1ccccc1)C(=O)O [GVLF] (H-GVLF-OH) | 60000 µM |  |  |  | State [1, 5]: gel; GELATION ([1]; peptide concentration 60 mM): 1; Morphology ([2]; line of the table gives 60 mM): rod
CC(C)C[C@H](NC(=O)[C@H](CC(C)C)NC(=O)[C@H](CC(C)C)NC(=O)[C@@H](N)CC(C)C)C(=O)O [LLLL] (H-LLLL-OH) | 30000 µM |  |  |  | State [1, 3]: gel; GELATION ([1]; peptide concentration 30 mM): 1; Morphology ([2]; line of the table gives 30 mM): needle
N[C@@H](Cc1c[nH]c2ccccc12)C(=O)N[C@@H](Cc1c[nH]c2ccccc12)C(=O)N[C@@H](Cc1c[nH]c2ccccc12)C(=O)N[C@@H](Cc1c[nH]c2ccccc12)C(=O)O [WWWW] (H-WWWW-OH) | 120000 µM | suspension | 0 | sphere | 
CC(C)C[C@H](NC(=O)[C@H](Cc1c[nH]cn1)NC(=O)[C@@H](N)Cc1ccccc1)C(=O)N[C@@H](Cc1ccccc1)C(=O)O [FHLF] (H-FHLF-OH) | 30000 µM |  |  |  | State [1, 3]: gel; GELATION ([1]; peptide concentration 30 mM): 1; Morphology ([2]; line of the table gives 30 mM): sheet
CC(C)C[C@H](N)C(=O)N[C@@H](Cc1ccccc1)C(=O)N[C@@H](Cc1c[nH]c2ccccc12)C(=O)N[C@@H](CO)C(=O)O [LFWS] (H-LFWS-OH) | 120000 µM | gel | 1 | sphere | 
CC(C)[C@H](NC(=O)[C@@H]1CCCN1)C(=O)N[C@@H](Cc1ccccc1)C(=O)N[C@@H](Cc1c[nH]c2ccccc12)C(=O)O [PVFW] (H-PVFW-OH) | 60000 µM |  |  |  | State [1, 5]: gel; GELATION ([1]; peptide concentration 60 mM): 1; Morphology ([2]; line of the table gives 60 mM): hybrid(needle+fibre)
CSCC[C@H](N)C(=O)N[C@H](C(=O)N[C@@H](CCC(N)=O)C(=O)NCC(=O)O)C(C)C [MVQG] (H-MVQG-OH) | 120000 µM | suspension | 0 | aggregates | 
CC(C)[C@H](N)C(=O)N[C@@H](Cc1ccccc1)C(=O)NCC(=O)N[C@H](C(=O)O)C(C)C [VFGV] (H-VFGV-OH) | 120000 µM | sol | 0 |  | 
CC(C)C[C@H](NC(=O)[C@@H](NC(=O)[C@H](Cc1ccccc1)NC(=O)[C@@H](N)CCCCN)C(C)C)C(=O)O [KFVL] (H-KFVL-OH) |  |  | 0 |  | 
CC(C)C[C@H](NC(=O)[C@@H](NC(=O)[C@H](Cc1ccccc1)NC(=O)[C@@H](N)CCCCN)C(C)C)C(=O)O [LYS-PHE-VAL-LEU] (H-KFVL-OH) |  |  |  |  | EXP ([1]; experimental gelation result of the synthesized peptide): 0
C[C@@H](O)[C@H](N)C(=O)N[C@@H](CCC(N)=O)C(=O)N[C@@H](Cc1ccccc1)C(=O)N[C@@H](CO)C(=O)O [TQFS] (H-TQFS-OH) |  |  | 0 |  | 
